In PMC7687371, “Quantitative in Vitro to in Vivo Extrapolation (QIVIVE) for Predicting Reduced Anogenital Distance Produced by Anti-Androgenic Pesticides in a Rodent Model for Male Reproductive Disorders” (Environmental Health Perspectives, 2020):
Like-named read-outs stand apart in the source and are kept apart here. Marks after values point to notes of the source that are not given here.

Key:
[1] = parameters: method as in U.S. EPA 2012; conditions: EPI Suite, experimental preferred over modeled; ref U.S. EPA 2012; cited from earlier work
[2] = cited from earlier work
[3] = PBK model first-order kinetic parameters fitted to in vivo ADME data; parameters: species or system rat; conditions: for Metabolism rate in liver, Total (L/h) KMetab: metabolic clearance
NCI-H295R cells = experiment: H295R steroidogenesis assay; format: cell-based, human; conditions: for Effect on androgen (steroid) synthesis, in words: H295R steroidogenesis assay; for IC20: read-out: Testosterone inhibition (IC20 µM); for IC50: 48 h, read-out: Testosterone inhibition (IC50, μM)
Experimental: To capture effects on steroid hormone synthesis (testosterone and androstendione), we tested all 12 pesticides in the H295R assay with the human adrenocortical carcinoma cell line NCI-H295R (American Type Culture Collection no. CRL-2,128, LGC Standards), as previously described ([Hecker et al. 2011]; [Rosenmai et al. 2013]). In brief, cells were cultured in DMEM/F-12 +glutamine medium with HEPES buffer (Invitrogen) containing 1% insulin-transferrin-sodium selenite plus Premix (VWR) and 2.5% Nu-Serum (BD Bioscience) at 37°C in a 5% CO2 atmosphere. The day before exposure, cells were seeded 300,000 per well in clear 24-well plates (VWR Corning). Cells were exposed for 48 h to control (Forskolin: 1μM , 10μM (Sigma-Aldrich); and Prochloraz: 0.3μM , 3μM (VWR-Bie and Berntsen) or test compounds. The vehicle (DMSO) concentration was kept constant in all wells (0.1%). After 48 h, the exposure culture medium was removed and stored at –80°C until the levels of 10 steroid hormones (testosterone, androstenedione, aldosterone, corticosterone, cortisol, dehydroepiandrosterone, 17α-hydroxyprogesterone , progesterone, estrone, and 17β-estradiol ) were quantified using the high-performance liquid chromatography–tandem mass spectrometry method described elsewhere ([Mortensen and Pedersen 2007]). Minor modifications were made to accommodate a smaller sample size and to include more hormones. The liquid chromatography system (Agilent 1100) was equipped with an Atlantis C18 column ( 2.1×150mm , 3μm ) (Waters Corp.) maintained at 40°C. The sample injection volume was 50μL . […] The mass spectrometer was a Quattro Ultima triple quadrupole instrument (Waters Corp.). […] Each pesticide was tested in 2-fold serial dilutions at concentrations between 0.8 and 50μM in three independent experiments, and hormone levels were normalized to the solvent controls containing 0.1% DMSO. Cell viability was evaluated by using the 3-(4,5-dimethylthiazol-2-yl)-2,5- diphenyltetrazolium bromide (MTT) assay (Sigma) as previously described ([Hecker et al. 2011]; [Rosenmai et al. 2013]). Fluorescence was measured (excitation 560 nm , emission 590 nm ) using a Wallac Victor2 1420 multilabel counter (PerkinElmer).

pregnant dams and pups = conditions: cited from earlier work; for Critical toxicity / LOAEL (mg/kg bw) / NOAEL (mg/kg bw): ref EFSA's Draft Assessment Reports (DARs)
Sprague-Dawley rats = experiment: In vivo Study 2 (linuron), reproductive/developmental toxicity, AGD; conditions: for AGDI mean: Study 2, male pups; for AGDI reduction (%): male offspring, normalized AGDI scale
Wistar rats [4] = conditions: rat, in vivo
[5] = Fetal chemical exposure analysis (LC-QTOF) at GD21; format: in vivo, rat; conditions: male, Wistar, rat, in vivo, 60 mg/kg/day
Experimental: Dams were decapitated under CO2 /oxygen anesthesia at GD21 and fetuses collected by cesarean section. Prior to decapitation of the fetuses, their BWs and AGDs were recorded. Blood from the dams was collected in heparinized vacutainer tubes, centrifuged at 125×g for 10 min at 4°C to prepare plasma, and, together with the amniotic fluid, frozen directly. Pooled trunk blood from all female and male fetuses of the same litter (female and male blood separately) was collected into heparin-treated capillary tubes approximately 90 min after dosing and the plasma was prepared and stored at −80°C until analysis for pesticides and selected metabolites by liquid chromatography quadrupole time-of-flight mass spectroscopy (LC-QTOF). Details about the LC-QTOF analyses are provided in “Method S1” in Supplemental Material. Amniotic fluid was collected from fetuses by pipetting, pooled within each litter, snap frozen in liquid nitrogen, and subsequently stored at −80 °C .
Method S1. Chemical analysis of pesticide levels
Acetonitrile, methanol, formic acid and 25% ammonium hydroxide, all of LC-MS grade and ethyl acetate were obtained from Sigma Aldrich, Schneldorf, Germany. Isolute bulk C-18 sorbent was obtained from Biotage, Sweden and was washed with acetonitrile and ethyl acetate and dried prior to use. Water was purified on a Milli Q system, Millipore Corporation, US.
Pesticide standards were purchased from Dr. Ehrenstorfer (Augsburg, Germany), LGC-standards (Teddington, Middlesex, UK) and Sigma Aldrich (St. Louis, MO, USA). Acetonitrile used as solvents for the LC-QTOF was LiChrosolv Hypergrade. An ESI-L low concentration tuning mix from Agilent (Santa Clara, CA, USA) was used for tuning of the TOF. A reference solution was prepared containing Purine and HP0921 from Agilent (Santa Clara, CA, USA).
Stock solutions of the pesticides were prepared at 1 mg/ml in acetonitrile, methanol or toluene.
Standard mixtures containing the test compounds were prepared at a concentration of 10 µg/ml acetonitrile and used for preparation of calibration solutions. Isomers eluting very close to each other were avoided in these mixtures. […]
added 200 µl of ice-cold acetonitrile in Eppendorf tubes. Internal standard was added in the form of 10 µl TPP (5 µg/ml) and the extraction was performed by whirl mixing. The tube was then stored on ice for 5 min and then centrifuged at 10,000 x g for 10 min at 4 °C (Ole Dich Instrument, Denmark). An aliquot of the supernatant was transferred to filter vials (0.45 µm) and analysed by […]
Quality control samples were included in each analytical run. These were prepared using the same procedure as for the samples, though using amniotic fluid from untreated control Wistar rats extracted with acetonitrile containing three different levels of the relevant pesticide standards. The resulting spike levels were 0.04, 0.013 and 0.13 µg/ml. […]
fluid or plasma from Sprague Dawley rats was transferred to an Eppendorf vial and added 150 µl of acetonitrile. 50 mg of isolute C-18 sorbent was added to the tube, which was shaken for 5 min, […]
cooled to 4 °C and centrifuged at 10,000 x g for 10 min at 4 °C (Ole Dich Instrument makers, Denmark). 20 µl of the supernatant was transferred to an HPLC vial and mixed with 80 µl of 5%- 75% acetonitrile (this percentage was analyte dependent) prior to analysis by LC-MS.LC -QTOF […]
Pesticide screening was carried out using a liquid chromatography-electrospray ionization-quadrupole-time of flight-mass spectrometer.
The LC system was connected to a Bruker Daltonics, maXis qTOF mass spectrometer equipped with an electrospray ion source operated in positive ion mode (Bruker Daltonics, Bremen, Germany). The ion source settings were: nebulizer pressure 2 bars, drying gas flow 8 l/min, dry gas temperature 200 °C, capillary voltage 2500 V. The scan range was from 80 to 700 m/z with an acquisition rate of 2 Hz. Sodium formate dissolved in 50% 2-propanol was introduced in the ion […]

Wistar rats [6] = experiment: In vivo Study 3 (fludioxonil, cyprodinil, dimethomorph), reproductive/developmental toxicity, AGD

Row | Structure (SMILES) | log Kow [1] | Fecal excretion rate from gut (L/h) KFeces ([3]; PBK model parameter) [L/h] | Portal GI absorption rate into liver (L/h) KAS ([3]; PBK model parameter) [L/h] | Urine excretion rate from kidney (L/h) KUrine ([3]; PBK model parameter) [L/h] | Metabolism rate in liver, Total (L/h) KMetab ([3]; PBK model parameter) [L/h] | Effect on androgen (steroid) synthesis, in words (NCI-H295R cells) | Estradiol, LOEC (NCI-H295R cells; multiple contrast tests) [µM] | Testosterone, lowest observed effect concentration (LOEC) (NCI-H295R cells; multiple contrast tests) [µM] | Critical toxicity (pregnant dams and pups) | LOAEL (mg/kg bw) (pregnant dams and pups) | NOAEL (mg/kg bw) (pregnant dams and pups) | IC50 (NCI-H295R cells; Homo sapiens, NCI-H295R) [µM] | IC20 (NCI-H295R cells; Homo sapiens, NCI-H295R) [µM] | Corticosterone, LOEC (NCI-H295R cells; multiple contrast tests) [µM] | Cortisol, LOEC (NCI-H295R cells; multiple contrast tests) [µM] | other results
1 | Oc1ccccc1-c1ccccc1 [o -Phenylphenol, o -phenylphenol] | 3.09 | 0.1 | 1 | 0.01 | 0.2 | inhibited testosterone synthesis | 25 | 50 | Maternal BW gain, bladder & kidney effect | 140 | 40 |  |  |  |  | Unbound plasma fraction (%) ([2]; ref Wetmore et al. (2012)): 4.1^g %; IC20 (NCI-H295R cells; NCI-H295R cells): 25 µM
2 | CON(C)C(=O)Nc1ccc(Cl)c(Cl)c1 [Linuron, linuron, reference compound] | 3.20 | 0.08 | 0.5 | 0.05 | 1.0 | inhibited the synthesis of androgens |  |  |  |  |  | 27 |  |  |  | Unbound plasma fraction (%) ([2]; ref Wetmore et al. (2012)): 10.5^g %; AGDI ED10 (Sprague-Dawley rats; Study 2, dose causing 10% AGDI reduction, regression): 27 mg/kg BW; AGDI mean (Sprague-Dawley rats; dose 25 mg/kg BW (control 1.00)): 0.91; AGDI mean (Sprague-Dawley rats; dose 50 mg/kg BW (control 1.00)): 0.72; Maternal toxicity (Sprague-Dawley rats; highest dose, 75 mg/kg per day): Maternal toxicity was observed; AGDI reduction (%) (Sprague-Dawley rats; dose 25 mg/kg BW per day): 9%; AGDI reduction (%) (Sprague-Dawley rats; dose 50 mg/kg BW per day): 28%
3 | CC1(C(=O)Nc2ccc(O)c(Cl)c2Cl)CCCCC1 [Fenhexamide, fenhexamid] | 3.51 | 3 | 1 | 0.05 | 0.15 | inhibited testosterone synthesis | 12.5 | 6.3 | Reduced maternal body and organ weight | 450 | 45 |  | 5.2 | 3.1 | 3.1 | Unbound plasma fraction (%) ([2]; plasma): 5.7^g %; Androstendione, LOEC (NCI-H295R cells; multiple contrast tests): 12.5 µM; DHEA, LOEC (NCI-H295R cells; multiple contrast tests): 12.5 µM; OH-Progesterone, LOEC (NCI-H295R cells; multiple contrast tests): 25 µM; Progesterone, LOEC (NCI-H295R cells; multiple contrast tests): 12.5 µM
4 | Cc1cc(C2CC2)nc(Nc2ccccc2)n1 [Cyprodinil, cyprodinil] | 4.00 | 1 | 1 | 0.2 | 0.01 | inhibited testosterone synthesis | 6.3 | 6.3 | Reduced maternal and pup BW |  | 71 | 8.5 | 0.4 | 25 | 25 | Shortening of AGDI compared with male controls (normalized AGDI scale) (Wistar rats [4]; male, Wistar (HanTac:WH)): around 10%; AGDI mean (Wistar rats [4]; male, Wistar, 20 mg/kg): 2.13; AGDI mean (Wistar rats [4]; male, Wistar, 60 mg/kg): 1.98; AGDI reduction (%) (Wistar rats [4]; male, Wistar, 60 mg/kg/day): 16%; AGDI mean (Wistar rats [4]; male, Wistar, 180 mg/kg): 2.09; Nipple retention at PD14, statistics in words (Wistar rats [4]): no statistically significant effects on nipple retention; Measured concentration in male fetuses [5]: 6.6 µM; Biliary excretion rate (L/h) KBiliary ([3]; PBK model parameter): 1.6 L/h; % postnatal deaths (Wistar rats [6]; 20 mg/kg bw/day): 1.2 ± 3.7%; % postnatal deaths (Wistar rats [6]; 60 mg/kg bw/day): 0.0 ± 0.0%; % postnatal deaths (Wistar rats [6]; 180 mg/kg bw/day): 0.0 ± 0.0%; Androstendione, LOEC (NCI-H295R cells; multiple contrast tests): 6.3 µM; Maternal liver toxicity (pregnant dams and pups; 180 mg/kg per day, ref EFSA 2005): induce maternal liver toxicity
5 | CC1(C)[C@H](C(=O)O[C@H](C#N)c2cccc(Oc3ccccc3)c2)[C@@H]1/C=C(\Cl)C(F)(F)F (racemic) [λ-Cyhalothrin, λ-cyhalothrin] | 6.80 | 4 | 1 | 0.05 | 0.3 | no effect on any measured androgen |  |  | Reduced maternal and pup BW |  |  |  | > 50 | 3.1 | 3.1 | 
6 | Cc1cc(C)nc(Nc2ccccc2)n1 [Pyrimethanil, pyrimethanil] | 2.84 | 0.1 | 1 | 0.01 | 0.8 | no effect on any measured androgen |  |  | Reduced maternal and pup BW | 294 | 23 |  | > 50 |  |  | Unbound plasma fraction (%) ([2]; plasma): 2.0^g %
7 | NC(=O)Nc1ccc(Cl)c(Cl)c1 [DPU, 1-(3,4-Dichlorophenyl)urea] | 2.00 |  |  | 0.05 |  |  |  |  |  |  |  | 5 |  |  |  | Metabolism rate in liver, Metabolite ([3]; conversion of parent compound into active metabolite): 0.25 L/h
